Test results from patent US20100080843A1, “Natural and synthetic sulfur and selenium analogs and polymer conjugated forms thereof for the modulation of angiogenesis” (The Research Foundation of the State University Of New York …, priority 2005, published 2010).
“And” between values parts separate entries of the source, which are not always exact repeats. Identical values can stand only once.

Experiments:
[1] = system: endothelial cells; test: Inhibition of Endothelial Cell Tube Formation (Matrigel, FGF2-stimulated); format: cell-based, Human; conditions: for inhibition at 3 µM: Homo sapiens, Endothelial cell, read-out: Man % Inhibition +/− SD
Description: Differentiation by endothelial cells was examined using a method developed by Grant et al. (Grant et al., In Vitro Cell Dev. Biol., 27A:327-336 (1991), which is hereby incorporated by reference in its entirety). Matrigel® matrix, phenol-red free (commercially available from Becton Dickinson, Bedford, Mass.) was thawed overnight at 4° C. Using cold pipette tips, 3.0 mg/well of Matrigel® matrix was placed M a cold twenty-four-multi-well plate (Falcon). Matrigel® matrix was allowed to polymerize during incubation at 37° C. for 30 minutes.

[2] = system: FGF2-induced angiogenesis in chick chorioalloantoic membranes; test: Neovascularization in the Chick Chorioalloantoic Membrane (CAM), FGF2-stimulated CAM Model; format: in vivo; conditions: for Branch Points ± SEM: CAM; for inhibition at 10 µM: Gallus gallus, FGF2 + analog, 10 uM (Table 4), read-out: % inhibition ± SEM Branch point in CAM; for % inhibition ± SEM: CAM branch points (Table 3)
Description: In vivo neovascularization was examined by the method previously described by Auerbach et al. (Auerbach et al., J. Dev. Biol., 41:391-394 (1974), which is hereby incorporated by reference in its entirety). Ten-day old embryos were purchased from Spafas, Inc. (Preston, Conn.) and were incubated at 37° C. with 55% relative humidity. In the dark with the help of a candling lamp, a small hole was punctured in the shell concealing the air sac with a hypodermic needle. A second hole was punctured, in the shell on the broadside of the egg directly over an avascular portion of the embryonic membrane, as observed during candling. A false air sac was created beneath the second hole by the application of negative pressure to the first hole, which caused the chorioallantoic membrane (CAM) to separate from the shell. A window, approximately 1.0 cm^2, was cut in the shell over the dropped CAM with the use of a small crafts grinding wheel (Dremel, Division of Emerson Electric Company Racine, Wis.), which allowed direct, access to the underlying CAM. Filter disks of #1 filter paper (Whatman International, United Kingdom) were soaked in 3 mg/mL cortisone acetate (Sigma, St. Louis, Mo.) in a solution of 95% ethanol and water and subsequently air dried under sterile conditions. FGF2 (Life Technologies, Gaithersburg, Md.) was used to grow vessels on the CAMs of 10 day old chick embryos. Sterile filter disks adsorbed with FGF2 dissolved in PBS at 1 μg/mL were placed on growing CAMs. Sterile filter disks adsorbed with FGF2 or sulfur- or selenium-containing compounds, and polymeric forms were dissolved in PBS at 1 μg/mL were placed on growing CAM. At 24 h, test compounds or control vehicle was added directly to CAM topically.
CAM tissue directly beneath FGF2-saturated filter disk was resected from embryos treated 48 hours prior with test compound or control. Tissues were washed three times with PBS. Sections were placed in a 35-mm petri dish (Nalge Nunc, Rochester, N.Y.) and examined under a SV6 stereomicroscope (Karl Zeiss, Thornwood, N.Y.) at 50× magnification. Digital images of CAM sections adjacent to filters were collected using a 3-CCD color video camera system (Toshiba America, New York, N.Y.) and analyzed using Image-Pro Plus software (Media Cybernetics, Silver Spring, Md.).
Statistical Analysis: Statistical analysis was performed by 1-way ANOVA comparing experimental with control samples.

[3] = FGF2 + analog, all compounds tested at 3 μM, n = 3

Row | Molecule | Length(mm) ± SEM [1, 3] [mm] | inhibition at 3 µM [1, 3] [%] | Branch Points ± SEM ([2]; FGF2 (1.0 ug/ml) + analog) | inhibition at 10 µM [2] [%] | % inhibition ± SEM ([2]; FGF2 (1.0 ug/ml) + analog) [%] | Length(mm) ± SEM ([1]; FGF2 alone (stimulated control)) [mm] | Branch Points ± SEM ([2]; FGF2 alone, 1.0 ug/ml)
1 | O=S1(=O)C=CC1 [Example 1] | 20.64 ± 0.68 | 77.9 ± 2.28 | 149 ± 8.9 | 48.9 ± 7 | – | – | –
2 | O=S1(=O)CCCC1 [Example 2] | 24.03 ± 0.85 | 66.5 ± 2.87 | 141.0 ± 10.69 | 55 ± 8.53 | – | – | –
3 | CCCCS(=O)(=O)CCCC [Example 3] | 25.41 ± 1.1 | 61.9 ± 3.57 | 150.88 ± 14.31 | 47.2 ± 11.4 | – | – | –
4 | O=S1(=O)CC=CC1 [Example 4] | 25.25 ± 0.66 | 62.5 ± 2.24 | 131.57 ± 11.55 | 62.6 ± 9.21 | – | – | –
5 | CS(=O)(=O)c1ccccc1 [Example 5] | 28.81 ± 1.0 | 50.5 ± 3.48 | 140 ± 5.2 | 37 | 37 ± 5.9 | – | –
6 | CSCS(C)(=O)=O [Example 6] | 22.91 ± 1.70 | 70.3 ± 5.71 | 158.0 ± 7.08 | 25.6 ± 8.1 | – | – | –
7 | CS(=O)(=O)C(Cl)(Cl)Cl [Example 9] | 21.95 ± 3.1 | 73.5 ± 10.5 | 135.83 ± 8.17 | 51 ± 9.36 | – | – | –
8 | CS(=O)(=O)CS(C)(=O)=O [Example 12] | 31.47 ± 1.5 | 41.5 ± 4.93 | 144.83 ± 9.19 | 40.6 ± 10.5 | – | – | –
9 | O=S1(=O)CC2(C1)CS(=O)(=O)C2 [Example 13] | 34.61 ± 0.24 | 31 ± 0.8 | 164 ± 5 | 24.7 ± 4.3 | 24 ± 4.3 | – | –
10 | O=[Se](=O)(c1ccccc1)c1ccccc1 [Example 14] | 31.91 ± 1.8 | 40.1 ± 6.12 | 143.5 ± 4.7 | 41.4 ± 4.5 | – | – | –
11 | O=S(=O)(c1ccccc1)c1ccccc1 [Example 15] | 23.43 ± 2.5 | 65.6 ± 8.9 | 163 ± 15 | 25 ± 13 | – | – | –
12 | C[Se](=O)(=O)c1ccccc1 [Example 16] | 28.78 ± 0.88 | 46.5 ± 3.2 | – | 23.8 ± 4.9 | – | – | –
13 | CC[Se](=O)(=O)CC [Example 17] | 30.98 ± 2.43 | 38.6 ± 8.7 | 146 ± 8.5 | 39.9 ± 7.3 | 40 ± 7 | – | –
14 | C[Se](=O)c1ccccc1 (stereo not drawn) [Example 18] | 28.22 ± 0.92 | 48.5 ± 3.3 | 165 ± 5.7 | 39 | 23.8 ± 4.9 | – | –
15 | CCS(=O)(=O)CC [Example 19] | 28.46 ± 25.7 | 47.6 ± 9.2 | 131 ± 17 | 53 ± 15 | – | – | –
16 | O=C(O)C[Se](=O)(=O)CC(=O)O [Example 20] | 25.11 ± 3.1 | 62.9 ± 10.5 | 148.67 ± 11.02 | 36.3 ± 12.6 | – | – | –
17 | FGF2: growth factor used to grow vessels on the CAMs; pro-angiogenic stimulus [reference compound] | – | – | – | – | – | 43.82 ± 3.2 | 180.33 ± 8.58 and 193 ± 11 and 173 ± 7.5
